Results taken from patent US5380825A (Sigma Chemical Company, priority 1991, dated 1995).
≈ marks a conversion by molar mass, not a printed value.

What was measured:
Type in all cases: binding
[1] = system: AZT antibodies; test: Immunological activity / tracer performance in FPIA for AZT (qualitative); conditions: for inhibition in FPIA for AZT: inhibitor of polarization
Procedure: (§1) An equal volume of precipitation reagent was added per microcentrifuge tube. The tubes were centrifuged at greater than 9,000×g for 1 minute.
(§2) (2) A 17.5 ul sample of each serum extract was brought to approximately pH 7-8 by the addition of buffer.
(§3) (4) After an appropriate incubation time, the polarization of each reaction mixture was determined using a polarization spectrofluorimeter.

[2] = system: antisera to AZT, Rabbit 2 (immunized with AZT-3-V:BSA); test: FPIA comparison of tracers, antiserum of Rabbit 2 (Table 1); conditions: for Polarization Units (P × 1000): 1 pmole of tracer, antiserum at the given titer; for ED50 AZT: concentration of AZT giving 50% reduction in polarization of this tracer relative to 0 tube; for Titer [Ab]: dilution of antiserum required to obtain the given polarization units with 1 pmole of tracer
Procedure: (§4) The immunogen (1 mg in 1 ml) was emulsified with an equal volume of Freund's Complete Adjuvant and injected intradermally into each of two female albino rabbits. The process was repeated in two weeks. Two weeks later, monthly subcutaneous booster injections were begun with 0.5 mg in 0.5 ml of the immunogen and 0.5 ml of Freund's Incomplete Adjuvant per animal. The rabbits were bled biweekly by a marginal ear vein technique beginning six weeks after the primary immunization. The blood collected was refrigerated, allowing clots to form, and the supernatant (antiserum) retained. The antiserum from each rabbit was collected and stored, either at -20° C. without preservative, or at 4° C. after addition of sodium azide to a final concentration of 0.1%. The same schedule was followed for each immunogen. Rabbits immunized produced antibodies to AZT.
(§5) Fluorescence Polarization Immunoassay for AZT
as §1, §2, §3
(§6) As further illustration of the invention polyclonal antibodies were raised in two rabbits by immunization with the conjugate of Example 4 (AZT-3-V:BSA) as is more fully described in Example 45 and stored at 4° C. with 0.1% sodium azide. A number of tracers were then compared as to their performance in FPIA using the antisera raised from two rabbits.
(§7) ^(1) TITER was defined as the dilution of antiserum (i.e., [Ab])
(§8) required to obtain the given polarization units (P × 1000) with 1
(§9) required to give a 50% reduction in polarization relative to a control (0
(§10) tube) containing no unlabeled AZT.

[3] = system: antisera to AZT, Rabbit 1 (immunized with AZT-3-V:BSA); test: FPIA comparison of tracers, antiserum of Rabbit 1 (Table 1); conditions: for Titer [Ab]: dilution of antiserum required to obtain the given polarization units with 1 pmole of tracer; for Polarization Units (P × 1000): 1 pmole of tracer, antiserum at the given titer; for ED50 AZT: concentration of AZT giving 50% reduction in polarization of this tracer relative to 0 tube
Procedure: as §4, §5, §1, §2, §3, §6, §7, §8, §9, §10

Compound	immunological activity in FPIA for AZT ([1]; qualitative)	Polarization Units (P × 1000) [2] [P × 1000]	ED50 AZT [2] [µg/mL]	Titer [Ab] [2]	Titer [Ab] [3]	Polarization Units (P × 1000) [3] [P × 1000]	ED50 AZT [3] [µg/mL]	performance as tracer for determination of AZT by FPIA ([1]; qualitative)	affinity and sensitivity as tracer ([1]; qualitative)	inhibition in FPIA for AZT ([1]; qualitative)	"cross-reactivity" relative to AZT in an AZT assay by FPIA ([1]; relative to AZT)
Cc1cn([C@H]2C[C@H](N=[N+]=[N-])[C@@H](CO)O2)c(=O)n(CCCN2C(=O)c3ccccc3C2=O)c1=O [Example 26, 3-(3-phthalimidopropyl)-3'-azido-3'-deoxythymidine]	immunologically active	–	–	–	–	–	–	–	–	–	–
Cc1cn([C@H]2C[C@H](N=[N+]=[N-])[C@@H](CO)O2)c(=O)n(CCCCC(=O)NCCNC(=S)Nc2ccc3c(c2)C(=O)OC32c3ccc(O)cc3Oc3cc(O)ccc32)c1=O [Example 7, 5-[[5-(3'-azido-3'-deoxythymid-3-yl)-valeramido]-ethylthiocarbamyl]-fluorescein]	–	197	> 8.0	3	1	–	–	–	–	–	–
Cc1cn([C@H]2C[C@H](N=[N+]=[N-])[C@@H](CO)O2)c(=O)n(CCCNC(=S)Nc2ccc3c(c2)C(=O)OC32c3ccc(O)cc3Oc3cc(O)ccc32)c1=O [Example 30, 5-[3-(3'-azido-3'-deoxythymid-3-yl)-propyl-thiocarbamyl]fluorescein]	–	170	4.0 (≈ 5.6 µM)	80	80	159	> 4.0	satisfactory tracer	–	–	–
Cc1cn([C@H]2C[C@H](N=[N+]=[N-])[C@@H](COC(=O)CCC(=O)NCCNC(=S)Nc3ccc4c(c3)C(=O)OC43c4ccc(O)cc4Oc4cc(O)ccc43)O2)c(=O)[nH]c1=O [Example 42]	Immunoactivity of this label was demonstrated	–	–	–	–	–	–	–	–	–	–
Cc1cn([C@H]2C[C@H](N=[N+]=[N-])[C@@H](CO)O2)c(=O)n(CCCNC(=S)Nc2ccc3c(c2)C2(OC3=O)c3cc(I)c(O)c(I)c3Oc3c2cc(I)c(O)c3I)c1=O [Example 36, 6-[3-(3 '-amido-3'-deoxythymid-3-yl)-propyl-thiocarbamyl]-erythrosin]	immunologically active	–	–	–	–	–	–	–	–	–	–
Cc1cn([C@H]2C[C@H](N=[N+]=[N-])[C@@H](CO)O2)c(=O)n(CCNC(=S)Nc2ccc3c(c2)C(=O)OC32c3ccc(O)cc3Oc3cc(O)ccc32)c1=O [Example 29, 5-[2-(3'-azido-3'-deoxythymid-3-yl)-ethyl-thiocarbamyl]fluorescein]	–	177	2.9 (≈ 4.14 µM)	58	150	180	3.9 (≈ 5.57 µM)	satisfactory tracer	–	–	–
Cc1cn([C@H]2C[C@H](N=[N+]=[N-])[C@@H](CO)O2)c(=O)n(CCCN)c1=O [Example 28, 3-(3-aminopropyl)-3'-azido-3'-deoxythymidine]	immunologically active	–	–	–	–	–	–	–	–	–	–
Cc1cn([C@H]2C[C@H](N=[N+]=[N-])[C@@H](CO)O2)c(=O)n(CCCC(=O)Nc2ccc3c(c2)C(=O)OC32c3ccc(O)cc3Oc3cc(O)ccc32)c1=O [Example 13, 5-[4-(3'-azido-3'-deoxythymid-3-yl)-butyramido]-fluorescein]	–	179	3.9 (≈ 5.71 µM)	115	450	170	1.3 (≈ 1.9 µM)	–	satisfactory affinity and sensitivity	–	–
COc1nc(NCCn2c(=O)c(C)cn([C@H]3C[C@H](N=[N+]=[N-])[C@@H](CO)O3)c2=O)nc(Nc2ccc3c(c2)C(=O)OC32c3ccc(O)cc3Oc3cc(O)ccc32)n1 [Example 17, 3-[2-[4-(Fluoresceinyl-5)-6-methoxy-s-triazin-2-yl]aminoethyl]-3'-azido-3'-deoxythymidine]	immunologically active	179	4.9 (≈ 6.41 µM)	100	190	160	2.5 (≈ 3.27 µM)	–	–	–	–
Cc1cn([C@H]2C[C@H](N=[N+]=[N-])[C@@H](CO)O2)c(=O)n(CCNc2nc(Cl)nc(Nc3ccc4c(c3)C(=O)OC43c4ccc(O)cc4Oc4cc(O)ccc43)n2)c1=O [AZT--(CH2)n --NH:DTAF, n=2]	–	156	> 8.0	125	250	162	4.0 (≈ 5.2 µM)	–	–	–	–
Cc1cn([C@H]2C[C@H](N=[N+]=[N-])[C@@H](CO)O2)c(=O)n(CCCC(=O)Nc2ccc3c(c2)C2(OC3=O)c3ccc(O)cc3Oc3cc(O)ccc32)c1=O [Example 14, 6-[4-(3'-azido-3'-deoxythymid-3-yl)-butyramido]-fluorescein]	–	159	1.4 (≈ 2.05 µM)	74	150	167	0.6 (≈ 0.879 µM)	–	–	–	–
Cc1cn([C@H]2C[C@H](N=[N+]=[N-])[C@@H](CO)O2)c(=O)n(CCCCC(=O)Nc2ccc3c(c2)C(=O)OC32c3ccc(O)cc3Oc3cc(O)ccc32)c1=O [Example 6]	immunologically active	175	8.0 (≈ 11.5 µM)	130	300	179	4.0 (≈ 5.74 µM)	–	–	–	–
Cc1cn([C@H]2C[C@H](N=[N+]=[N-])[C@@H](CO)O2)c(=O)n(CCCNc2nc(Cl)nc(Nc3ccc4c(c3)C(=O)OC43c4ccc(O)cc4Oc4cc(O)ccc43)n2)c1=O [Example 34, 3-[3-[4-(Fluoresceinyl-5)-6-chloro-s-triazin-2-yl]-aminopropyl]-3'-azido-3'-deoxythymidine]	immunologically active	168	4.0 (≈ 5.11 µM)	140	500	171	2.0 (≈ 2.55 µM)	–	–	–	–
Cc1cn([C@H]2C[C@H](N=[N+]=[N-])[C@@H](CO)O2)c(=O)n(CC(=O)Nc2ccc3c(c2)C(=O)OC32c3ccc(O)cc3Oc3cc(O)ccc32)c1=O [Example 22, 5-[2-(3'-azido-3'-deoxythymid-3-yl)-acetamido]-fluorescein]	–	150	2.0 (≈ 3.06 µM)	105	150	164	1.4 (≈ 2.14 µM)	–	–	–	–
Cc1cn([C@H]2C[C@H](N=[N+]=[N-])[C@@H](CO)O2)c(=O)n(CC(=O)O)c1=O [Example 19, 3-carboxymethyl-3'-azido-3'-deoxythymidine]	immunological activity	–	–	–	–	–	–	–	–	–	–
Cc1cn([C@H]2C[C@H](N=[N+]=[N-])[C@@H](CO)O2)c(=O)n(CC(=O)NCCNC(=S)Nc2ccc3c(c2)C(=O)OC32c3ccc(O)cc3Oc3cc(O)ccc32)c1=O [Example 23, 5-[[2-(3'-azido-3'-deoxythymid-3-yl)-acetamido]-ethylthiocarbamyl]-fluorescein]	–	164	1.4 (≈ 1.85 µM)	28	53	173	2.4 (≈ 3.17 µM)	–	–	–	–
Cc1cn([C@H]2C[C@H](N=[N+]=[N-])[C@@H](CO)O2)c(=O)n(CCNC(=O)CCc2ccc(O)cc2)c1=O [Example 33, 3-[2-[3-(4-hydroxyphenyl)-propionamido]-ethyl]-3'-azido-3'-deoxythymidine]	–	–	–	–	–	–	–	–	–	effective inhibitor of polarization	–
O=C(O)CCc1ccc(O)cc1 [HPPA, 3-(4-hydroxyphenyl)propionic acid, reference compound]	–	–	–	–	–	–	–	–	–	unlike 3-(4-hydroxyphenyl)propionic acid (HPPA), was an effective inhibitor of polarization	–
3-carbethoxy-3'-azido-3'-deoxythymidine [Example 21]	immunologically active	–	–	–	–	–	–	–	–	–	approximately 110%
Cc1cn([C@H]2C[C@H](N=[N+]=[N-])[C@@H](CO)O2)c(=O)n(CCCC(=O)NCC(=O)N[C@@H](Cc2ccc(O)cc2)C(=O)O)c1=O [Example 18, N-[4-(3'-azido-3'-deoxythymid-3-yl)-butyryl]-glycyl-L-tyrosine]	immunologically active	–	–	–	–	–	–	–	–	–	–
COC(=O)C(Cc1ccc(O)cc1)NC(=O)CCCn1c(=O)c(C)cn([C@H]2C[C@H](N=[N+]=[N-])[C@@H](CO)O2)c1=O (stereo partly drawn) [Example 16, 2-[4-(3'-azido-3'-deoxythymid-3-yl)-butyramido]-3-(4-hydroxyphenyl)-propionic acid methyl ester]	immunologically active	–	–	–	–	–	–	–	–	–	–
